Laboratory results as given in patent publication US8729091B2, “4-phenoxy-nicotinamide or 4-phenoxy-pyrimidine-5-carboxamide compounds” (Hoffmann-La Roche Inc., priority 2010, dated 2014).

biological target: T1, human GPBAR1 receptor (Homo sapiens, UniProt Q8TDU6); experiment: functional cAMP assay in CHO-dhfr(minus) cells expressing human GPBAR1 receptors; type: cell-based; conditions: cAMP increase (TR-FRET) in CHO-dhfr(minus) cells expressing human GPBAR1; compounds incubated 30 min at 30° C.
T1 construct: expressed in transfected cells
T1 sequence (Q8TDU6 1-330): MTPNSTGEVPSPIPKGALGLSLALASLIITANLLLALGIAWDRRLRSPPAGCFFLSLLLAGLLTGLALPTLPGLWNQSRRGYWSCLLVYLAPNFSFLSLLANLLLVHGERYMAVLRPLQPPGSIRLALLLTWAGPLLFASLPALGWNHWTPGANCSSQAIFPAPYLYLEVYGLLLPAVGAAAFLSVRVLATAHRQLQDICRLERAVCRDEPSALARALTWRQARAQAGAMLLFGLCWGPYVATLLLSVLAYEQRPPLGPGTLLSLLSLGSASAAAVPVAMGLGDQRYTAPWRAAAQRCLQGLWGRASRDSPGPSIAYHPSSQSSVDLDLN
Experimental: The final clone was verified by DNA sequence analysis. The plasmid was transfected into CHO cells deficient in dihydrofolate reductase activity (CHO-dhfr−) using Lipofectamine plus (Invitrogen). Clones were isolated in limited dilution conditions and identified by activities in the cAMP assay using lithocholic acid as agonist.
The growth medium was exchanged with Krebs Ringer Bicarbonate buffer with 1 mM IBMX and incubated at 30° C. for 30 min. Compounds were added to a final assay volume of 100 μl and incubated for 30 min at 30° C. […] The time-resolved energy transfer is measured by a TRF reader (Evotec Technologies GmbH, Hamburg Germany), equipped with a ND:YAG laser as excitation source.
EC50 values were determined using Activity Base analysis (ID Business Solution, Limited). […] Specificity for GPBAR1 was tested in non-transfected CHO cells in the same assay as above.

| Compound | EC50 [nM] |
| --- | --- |
| CN(C(=O)c1cnccc1Oc1cc(Cl)ccc1Cl)c1cccc2c1NCCC2 [Example 24, 4-(2,5-Dichloro-phenoxy)-N-methyl-N-(1,2,3,4-tetrahydro-quinolin-8-yl)-nicotinamide] | 100 |
| CCOC(=O)CCNC(=O)c1cc(Cl)c(Oc2ccncc2C(=O)N2CCN(C3CC3)c3ccccc32)cc1Cl [Example 33, 3-{2,5-Dichloro-4-[3-(4-cyclopropyl-3,4-dihydro-2H-quinoxaline-1-carbonyl)-pyridin-4-yloxy]-benzoylamino}-propionic acid ethyl ester] | 20 |
| CS(=O)(=O)N1CCN(C(=O)c2cnccc2Oc2cc(Cl)ccc2Cl)c2ccccc21 [Example 7, [4-(2,5-Dichloro-phenoxy)-pyridin-3-yl]-(4-methanesulfonyl-3,4-dihydro-2H-quinoxalin-1-yl)-methanone] | 300 |
| Cc1cc(Oc2cc(Cl)ccc2Cl)c(C(=O)N2CCN(C3CC3)c3ccccc32)c(Cl)n1 [Example 73, [2-Chloro-4-(2,5-dichloro-phenoxy)-6-methyl-pyridin-3-yl]-(4-cyclopropyl-3,4-dihydro-2H-quinoxalin-1-yl)-methanone] | 50 |
| COC(=O)c1cc(NC(=O)c2cc(Cl)c(Oc3ccncc3C(=O)N3CCN(C4CC4)c4ccccc43)cc2Cl)cn1C [Example 41, 4-{2,5-Dichloro-4-[3-(4-cyclopropyl-3,4-dihydro-2H-quinoxaline-1-carbonyl)-pyridin-4-yloxy]-benzoylamino}-1-methyl-1H-pyrrole-2-carboxylic acid methyl ester] | 100 |
| CCOC(=O)C(C)(C)Oc1cc(Cl)c(Oc2ccncc2C(=O)N2CCN(C3CC3)c3ccccc32)cc1Cl [Example 60, 2-{2,5-Dichloro-4-[3-(4-cyclopropyl-3,4-dihydro-2H-quinoxaline-1-carbonyl)-pyridin-4-yloxy]-phenoxy}-2-methyl-propionic acid ethyl ester] | 200 |
| CCOC(=O)c1nnc(NC(=O)c2cc(Cl)c(Oc3ccncc3C(=O)N3CCN(C4CC4)c4ccccc43)cc2Cl)s1 [Example 47, 5-{2,5-Dichloro-4-[3-(4-cyclopropyl-3,4-dihydro-2H-quinoxaline-1-carbonyl)-pyridin-4-yloxy]-benzoylamino}-[1,3,4]thiadiazole-2-carboxylic acid ethyl ester] | 100 |
| O=C(c1cnccc1Oc1cc(Cl)c(CO)cc1Cl)N1CCN(C2CC2)c2ccccc21 [Example 55, (4-Cyclopropyl-3,4-dihydro-2H-quinoxalin-1-yl)-[4-(2,5-dichloro-4-hydroxymethyl-phenoxy)-pyridin-3-yl]-methanone] | 3 |
| O=C(c1cnccc1Oc1cc(Cl)ccc1Cl)N1CCN(CC2CC2)c2ccccc21 [Example 6, (4-Cyclopropylmethyl-3,4-dihydro-2H-quinoxalin-1-yl)-[4-(2,5-dichloro-phenoxy)-pyridin-3-yl]-methanone] | 3 |
| COc1ncccc1N(C)C(=O)c1cncnc1Oc1cc(Cl)ccc1Cl [Example 80, 4-(2,5-Dichloro-phenoxy)-pyrimidine-5-carboxylic acid (2-methoxy-pyridin-3-yl)-methyl-amide] | 90 |
| O=C(NCCO)c1cc(Cl)c(Oc2ccncc2C(=O)N2CCN(C3CC3)c3ccccc32)cc1Cl [Example 49, 2,5-Dichloro-4-[3-(4-cyclopropyl-3,4-dihydro-2H-quinoxaline-1-carbonyl)-pyridin-4-yloxy]-N-(2-hydroxy-ethyl)-benzamide] | 40 |
| COC(=O)c1cc(Cl)c(Oc2cc(C)ncc2C(=O)N2CCN(C3CC3)c3ccccc32)cc1Cl [Example 65, 2,5-Dichloro-4-[5-(4-cyclopropyl-3,4-dihydro-2H-quinoxaline-1-carbonyl)-2-methyl-pyridin-4-yloxy]-benzoic acid methyl ester] | 20 |

More lines, in order of falling EC50, values ahead:

| EC50 [nM] | Compound |
| --- | --- |
| 1900 | CN(C(=O)c1cnccc1Oc1cc(Cl)ccc1Cl)c1ccccc1N1CCCCC1 [Example 17, 4-(2,5-Dichloro-phenoxy)-N-methyl-N-(2-piperidin-1-yl-phenyl)-nicotinamide] |
| 1800 | CCOC(=O)C1CC1CN1CCN(C(=O)c2cnccc2Oc2cc(Cl)ccc2Cl)c2ccccc21 (stereo not drawn) [Example 5, 2-{4-[4-(2,5-Dichloro-phenoxy)-pyridine-3-carbonyl]-3,4-dihydro-2H-quinoxalin-1-ylmethyl}-cyclopropanecarboxylic acid ethyl ester] |
| 1400 | CN(C(=O)c1cnccc1Oc1cc(Cl)ccc1Cl)c1cc(C(F)(F)F)cc(C(F)(F)F)c1 [Example 18, N-(3,5-Bis-trifluoromethyl-phenyl)-4-(2,5-dichloro-phenoxy)-N-methyl-nicotinamide] |
| 900 | CN(CC(=O)O)C(=O)c1cc(Cl)c(Oc2ccncc2C(=O)N2CCN(C3CC3)c3ccccc32)cc1Cl [Example 32, ({2,5-Dichloro-4-[3-(4-cyclopropyl-3,4-dihydro-2H-quinoxaline-1-carbonyl)-pyridin-4-yloxy]-benzoyl}-methyl-amino)-acetic acid] |
| 700 | O=C(c1c[n+]([O-])ccc1Oc1cc(Cl)ccc1Cl)N1CCCc2ccccc21 [Example 10, [4-(2,5-Dichloro-phenoxy)-1-oxy-pyridin-3-yl]-(3,4-dihydro-2H-quinolin-1-yl)-methanone] |
| 400 | Cc1cc(Oc2cc(Cl)c(C(=O)NCc3nnn[nH]3)cc2Cl)c(C(=O)N2CCN(C3CC3)c3ccccc32)cn1 [Example 72, 2,5-Dichloro-4-[5-(4-cyclopropyl-3,4-dihydro-2H-quinoxaline-1-carbonyl)-2-methyl-pyridin-4-yloxy]-N-(1H-tetrazol-5-ylmethyl)-benzamide] |
| 400 | Cc1cc(Oc2cc(Cl)c(C(=O)NCC(=O)O)cc2Cl)c(C(=O)N2CCN(C3CC3)c3ccccc32)cn1 [Example 70, {2,5-Dichloro-4-[5-(4-cyclopropyl-3,4-dihydro-2H-quinoxaline-1-carbonyl)-2-methyl-pyridin-4-yloxy]-benzoylamino}-acetic acid] |
| 300 | Cc1cc(Oc2cc(Cl)c(C(=O)O)cc2Cl)c(C(=O)N2CCN(C3CC3)c3ccccc32)cn1 [Example 66, 2,5-Dichloro-4-[5-(4-cyclopropyl-3,4-dihydro-2H-quinoxaline-1-carbonyl)-2-methyl-pyridin-4-yloxy]-benzoic acid] |
| 200 | O=C(O)CCCNC(=O)c1cc(Cl)c(Oc2ccncc2C(=O)N2CCN(C3CC3)c3ccccc32)cc1Cl [Example 40, 4-{2,5-Dichloro-4-[3-(4-cyclopropyl-3,4-dihydro-2H-quinoxaline-1-carbonyl)-pyridin-4-yloxy]-benzoylamino}-butyric acid] |
| 100 | COC(=O)c1ccc(NC(=O)c2cc(Cl)c(Oc3ccncc3C(=O)N3CCN(C4CC4)c4ccccc43)cc2Cl)cc1 [Example 43, 4-{2,5-Dichloro-4-[3-(4-cyclopropyl-3,4-dihydro-2H-quinoxaline-1-carbonyl)-pyridin-4-yloxy]-benzoylamino}-benzoic acid methyl ester] |
| 12 | O=C(c1cnccc1Oc1cc(Cl)c(OCCO)cc1Cl)N1CCN(C2CC2)c2ccccc21 [Example 62, (4-Cyclopropyl-3,4-dihydro-2H-quinoxalin-1-yl)-{4-[2,5-dichloro-4-(2-hydroxy-ethoxy)-phenoxy]-pyridin-3-yl}-methanone] |
| 3 | CN1CCN(C(=O)c2cnccc2Oc2cc(Cl)ccc2Cl)c2ccccc21 [Example 4, [4-(2,5-Dichloro-phenoxy)-pyridin-3-yl]-(4-methyl-3,4-dihydro-2H-quinoxalin-1-yl)-methanone] |
